Results: article PMC6072100, “Exploring the links between peptoid antibacterial activity and toxicity” (MedChemComm, 2017)
Read-outs that look alike come from different tables or passages of the source. Square brackets hold non-standard residues; d marks the D form. Peptide text beside a SMILES is read from it. N(4-F-Bzl)Gly = O=C(O)CNCc1ccc(F)cc1; Gly(N-(CH2)6NH2) = NCCCCCCNCC(=O)O; Gly(N-2-aminoethyl) = NCCNCC(=O)O; Nspe = C[C@H](NCC(=O)O)c1ccccc1; NhArg = N=C(N)NCCCCNCC(=O)O; Nphe = O=C(O)CNCc1ccccc1; Nlys = NCCCCNCC(=O)O

Experiments:
HaCaT cells = assay: Skin cell toxicity assay with HaCaT (alamarBlue); assay type: cell-based, human
How it was run: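 HaCaT cells seeded at 2x10^4 per well 24 hours before 1-hour exposure to a 2–100 µM triplicate dilution series in DMEM high glucose with 10% FBS at 37 °C, 5% CO2. Viability assessed with alamarBlue; ED50 defined as dose killing 50% of cells, derived from dose-response data.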

HepG2 cells = assay: Cytotoxicity assay with HepG2 (alamarBlue); assay type: cell-based, human
How it was run: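 HepG2 cells (2 × 10^4/well, seeded 1 day earlier) were exposed to compounds (2–100 μM dilution series, triplicate) for 1 h in reduced volume, then diluted with medium and incubated 24 h at 37 °C. Viability was read by alamarBlue after 2 h (Ex 560/Em 600 nm), and ED50 (dose killing 50% of cells) came from dose-response curves.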

[1] = human, HaCaT cells (keratinocytes), 24 h
[2] = dose that kills 50% of cells, 2–100 μM, 1 h with compound then 24 h, alamarBlue

| Molecule | ED50 HaCaT (HaCaT cells; [1]) | ED50 HepG2 (HepG2 cells; human, HepG2 cells, 24 h) | ED50 HepG2 (HepG2 cells) | further results |
| --- | --- | --- | --- | --- |
| NCCNCC(=O)N(CC(=O)N(CC(=O)N(CCN)CC(=O)N(CC(=O)N(CC(=O)N(CCN)CC(=O)N(CC(=O)N(CC(N)=O)Cc1ccccc1)Cc1ccccc1)Cc1ccccc1)Cc1ccccc1)Cc1ccccc1)Cc1ccccc1 [Peptoid 8, (NaeNpheNphe)3] (H-[Gly(N-2-aminoethyl)][Nphe][Nphe][Gly(N-2-aminoethyl)][Nphe][Nphe][Gly(N-2-aminoethyl)][Nphe][Nphe]-NH2) | >100 µM | >100 µM |  |  |
| NCCCCCCNCC(=O)N(CC(=O)N(CC(=O)N(CCCCCCN)CC(=O)N(CC(=O)N(CC(=O)N(CCCCCCN)CC(=O)N(CC(=O)N(CC(=O)N(CCCCCCN)CC(=O)N(CC(=O)N(CC(N)=O)Cc1ccccc1)Cc1ccccc1)Cc1ccccc1)Cc1ccccc1)Cc1ccccc1)Cc1ccccc1)Cc1ccccc1)Cc1ccccc1 [Peptoid 1, (NahNpheNphe)4] (H-[Gly(N-(CH2)6NH2)][Nphe][Nphe][Gly(N-(CH2)6NH2)][Nphe][Nphe][Gly(N-(CH2)6NH2)][Nphe][Nphe][Gly(N-(CH2)6NH2)][Nphe][Nphe]-NH2) | >100 µM | >100 µM |  |  |
| COc1ccc(CN(CC(N)=O)C(=O)CN(Cc2ccc(OC)cc2)C(=O)CN(CCCCN)C(=O)CN(Cc2ccc(OC)cc2)C(=O)CN(Cc2ccc(OC)cc2)C(=O)CN(CCCCN)C(=O)CN(Cc2ccc(OC)cc2)C(=O)CN(Cc2ccc(OC)cc2)C(=O)CN(CCCCN)C(=O)CN(Cc2ccc(OC)cc2)C(=O)CN(Cc2ccc(OC)cc2)C(=O)CNCCCCN)cc1 [Peptoid 19, (NLysNpmbNpmb)4] |  | >100 µM |  |  |
| NCCNCC(=O)N(CC(=O)N(CC(=O)N(CCN)CC(=O)N(CC(=O)N(CC(=O)N(CCN)CC(=O)N(CC(=O)N(CC(=O)N(CCN)CC(=O)N(CC(=O)N(CC(N)=O)Cc1ccccc1)Cc1ccccc1)Cc1ccccc1)Cc1ccccc1)Cc1ccccc1)Cc1ccccc1)Cc1ccccc1)Cc1ccccc1 [Peptoid 7, (NaeNpheNphe)4] (H-[Gly(N-2-aminoethyl)][Nphe][Nphe][Gly(N-2-aminoethyl)][Nphe][Nphe][Gly(N-2-aminoethyl)][Nphe][Nphe][Gly(N-2-aminoethyl)][Nphe][Nphe]-NH2) | >100 µM | >100 µM |  | toxicity to HaCaT or HepG2 (in words) (HaCaT cells): negligible toxicity |
| NCCCCNCC(=O)N(CC(=O)N(CC(=O)N(CCCCN)CC(=O)N(CC(=O)N(CC(=O)N(CCCCN)CC(=O)N(CC(=O)N(CC(N)=O)Cc1ccccc1)Cc1ccccc1)Cc1ccccc1)Cc1ccccc1)Cc1ccccc1)Cc1ccccc1 [Peptoid 5, (NLysNpheNphe)3] | >100 µM | >100 µM |  |  |
| NCCNCC(=O)N(CC(=O)N(CC(=O)N(CCN)CC(=O)N(CC(=O)N(CC(N)=O)Cc1ccccc1)Cc1ccccc1)Cc1ccccc1)Cc1ccccc1 [Peptoid 9, (NaeNpheNphe)2] (H-[Gly(N-2-aminoethyl)][Nphe][Nphe][Gly(N-2-aminoethyl)][Nphe][Nphe]-NH2) | >100 µM | >100 µM |  |  |
| C[C@@H](c1ccccc1)N(CC(N)=O)C(=O)CN(C(=O)CN(CCCCCCN)C(=O)CN(C(=O)CN(C(=O)CNCCCCCCN)[C@@H](C)c1ccccc1)[C@@H](C)c1ccccc1)[C@@H](C)c1ccccc1 [Peptoid 12, (NahNspeNspe)2] | >100 µM | >100 µM |  |  |
| C[C@@H](c1ccccc1)N(CC(N)=O)C(=O)CN(C(=O)CN(CCCCN)C(=O)CN(C(=O)CN(C(=O)CN(CCCCN)C(=O)CN(C(=O)CN(C(=O)CN(CCCCN)C(=O)CN(C(=O)CN(C(=O)CNCCCCN)[C@@H](C)c1ccccc1)[C@@H](C)c1ccccc1)[C@@H](C)c1ccccc1)[C@@H](C)c1ccccc1)[C@@H](C)c1ccccc1)[C@@H](C)c1ccccc1)[C@@H](C)c1ccccc1 [Peptoid 13, (NLysNspeNspe)4] (H-[Nlys][Nspe][Nspe][Nlys][Nspe][Nspe][Nlys][Nspe][Nspe][Nlys][Nspe][Nspe]-NH2) |  |  |  | ED50 HaCaT (HaCaT cells; [2]): 20 µM; ED50 HepG2 (HepG2 cells; [2]): 29 µM |
| NCCCCCCNCC(=O)N(CC(=O)N(CC(=O)N(CCCCCCN)CC(=O)N(CC(=O)N(CC(=O)N(CCCCCCN)CC(=O)N(CC(=O)N(CC(N)=O)Cc1ccccc1)Cc1ccccc1)Cc1ccccc1)Cc1ccccc1)Cc1ccccc1)Cc1ccccc1 [Peptoid 2, (NahNpheNphe)3] (H-[Gly(N-(CH2)6NH2)][Nphe][Nphe][Gly(N-(CH2)6NH2)][Nphe][Nphe][Gly(N-(CH2)6NH2)][Nphe][Nphe]-NH2) | >100 µM | >100 µM |  |  |
| NCCCCNCC(=O)N(CC(=O)N(CC(=O)N(CCCCN)CC(=O)N(CC(=O)N(CC(=O)N(CCCCN)CC(=O)N(CC(=O)N(CC(=O)N(CCCCN)CC(=O)N(CC(=O)N(CC(N)=O)Cc1ccccc1)Cc1ccccc1)Cc1ccccc1)Cc1ccccc1)Cc1ccccc1)Cc1ccccc1)Cc1ccccc1)Cc1ccccc1 [Peptoid 4, (NLysNpheNphe)4] (H-[Nlys][Nphe][Nphe][Nlys][Nphe][Nphe][Nlys][Nphe][Nphe][Nlys][Nphe][Nphe]-NH2) |  | >100 µM | > 100 µM | toxicity to HaCaT or HepG2 (in words) (HaCaT cells): negligible toxicity |
| C[C@@H](c1ccccc1)N(CC(N)=O)C(=O)CN(C(=O)CN(CCCCNC(=N)N)C(=O)CN(C(=O)CN(C(=O)CN(CCCCNC(=N)N)C(=O)CN(C(=O)CN(C(=O)CN(CCCCNC(=N)N)C(=O)CN(C(=O)CN(C(=O)CNCCCCNC(=N)N)[C@@H](C)c1ccccc1)[C@@H](C)c1ccccc1)[C@@H](C)c1ccccc1)[C@@H](C)c1ccccc1)[C@@H](C)c1ccccc1)[C@@H](C)c1ccccc1)[C@@H](C)c1ccccc1 [Peptoid 34, (NhArgNspeNspe)4] (H-[NhArg][Nspe][Nspe][NhArg][Nspe][Nspe][NhArg][Nspe][Nspe][NhArg][Nspe][Nspe]-NH2) |  |  | 12 µM | ED50 HaCaT (HaCaT cells): 20 µM |
| C[C@@H](c1ccccc1)N(CC(N)=O)C(=O)CN(C(=O)CN(CCCCN)C(=O)CN(Cc1ccc(F)cc1)C(=O)CN(Cc1ccc(F)cc1)C(=O)CN(CCCCN)C(=O)CN(C(=O)CN(C(=O)CN(CCCCN)C(=O)CN(Cc1ccc(F)cc1)C(=O)CN(Cc1ccc(F)cc1)C(=O)CNCCCCN)[C@@H](C)c1ccccc1)[C@@H](C)c1ccccc1)[C@@H](C)c1ccccc1 [Peptoid 28, [(NLysNpfbNpfb)(NLysNspeNspe)]2] | >100 µM |  | 55 µM | toxicity to HaCaT or HepG2 (in words) (HaCaT cells): negligible toxicity |
| CCCCCNCC(=O)N(CC(=O)N(CC(=O)N(CCCCC)CC(=O)N(CC(=O)N(CC(=O)N(CCCCN)CC(=O)N(CC(=O)N(CC(=O)N(CCCCN)CC(=O)N(CC(=O)N(CC(N)=O)[C@@H](C)c1ccccc1)[C@@H](C)c1ccccc1)[C@@H](C)c1ccccc1)[C@@H](C)c1ccccc1)[C@@H](C)c1ccccc1)[C@@H](C)c1ccccc1)[C@@H](C)c1ccccc1)[C@@H](C)c1ccccc1 [Peptoid 31, (NamyNspeNspe)2(NLysNspeNspe)2] |  |  | 18 µM | ED50 HaCaT (HaCaT cells): 20 µM |
| NCCCCNCC(=O)N(CC(=O)N(CC(=O)N(CCCCN)CC(=O)N(CC(=O)N(CC(=O)N(CCCCN)CC(=O)N(CC(=O)N(CC(=O)N(CCCCN)CC(=O)N(CC(=O)N(CC(N)=O)Cc1ccc(F)cc1)Cc1ccc(F)cc1)Cc1ccc(F)cc1)Cc1ccc(F)cc1)Cc1ccc(F)cc1)Cc1ccc(F)cc1)Cc1ccc(F)cc1)Cc1ccc(F)cc1 [Peptoid 22, (NLysNpfbNpfb)4] (H-[Nlys][N(4-F-Bzl)Gly][N(4-F-Bzl)Gly][Nlys][N(4-F-Bzl)Gly][N(4-F-Bzl)Gly][Nlys][N(4-F-Bzl)Gly][N(4-F-Bzl)Gly][Nlys][N(4-F-Bzl)Gly][N(4-F-Bzl)Gly]-NH2) |  |  | 30 µM | ED50 HaCaT (HaCaT cells): 46 µM |
| NCCCCNCC(=O)N(CC(=O)N(CC(=O)N(CCCCN)CC(=O)N(CC(=O)N(CC(N)=O)Cc1ccccc1)Cc1ccccc1)Cc1ccccc1)Cc1ccccc1 [Peptoid 6, (NLysNpheNphe)2] (H-[Nlys][Nphe][Nphe][Nlys][Nphe][Nphe]-NH2) | >100 µM | >100 µM |  |  |
| C[C@@H](c1ccccc1)N(CC(N)=O)C(=O)CN(C(=O)CN(CCN)C(=O)CN(C(=O)CN(C(=O)CN(CCN)C(=O)CN(C(=O)CN(C(=O)CNCCN)[C@@H](C)c1ccccc1)[C@@H](C)c1ccccc1)[C@@H](C)c1ccccc1)[C@@H](C)c1ccccc1)[C@@H](C)c1ccccc1 [Peptoid 17, (NaeNspeNspe)3] |  |  |  | ED50 HaCaT (HaCaT cells; [2]): >100 µM; ED50 HepG2 (HepG2 cells; [2]): >100 µM |
| NCCCCNCC(=O)N(CC(=O)N(CC(=O)N(CCCCN)CC(=O)N(CC(=O)N(CC(=O)N(CCCCN)CC(=O)N(CC(=O)N(CC(N)=O)Cc1ccc(F)cc1)Cc1ccc(F)cc1)Cc1ccc(F)cc1)Cc1ccc(F)cc1)Cc1ccc(F)cc1)Cc1ccc(F)cc1 [Peptoid 23, (NLysNpfbNpfb)3] (H-[Nlys][N(4-F-Bzl)Gly][N(4-F-Bzl)Gly][Nlys][N(4-F-Bzl)Gly][N(4-F-Bzl)Gly][Nlys][N(4-F-Bzl)Gly][N(4-F-Bzl)Gly]-NH2) | >100 µM |  |  | toxicity to HaCaT or HepG2 (in words) (HaCaT cells): negligible toxicity |
| NCCCCCCNCC(=O)N(CC(=O)N(CC(=O)N(CCCCCCN)CC(=O)N(CC(=O)N(CC(N)=O)Cc1ccccc1)Cc1ccccc1)Cc1ccccc1)Cc1ccccc1 [Peptoid 3, (NahNpheNphe)2] (H-[Gly(N-(CH2)6NH2)][Nphe][Nphe][Gly(N-(CH2)6NH2)][Nphe][Nphe]-NH2) | >100 µM | >100 µM |  |  |
| (NhArgNmfbNmfb)4 [Peptoid 36] |  |  | 21 µM | ED50 HaCaT (HaCaT cells): 28 µM |
| C[C@@H](c1ccccc1)N(CC(N)=O)C(=O)CN(C(=O)CN(CCN)C(=O)CN(C(=O)CN(C(=O)CNCCN)[C@@H](C)c1ccccc1)[C@@H](C)c1ccccc1)[C@@H](C)c1ccccc1 [Peptoid 18, (NaeNspeNspe)2] | >100 µM | >100 µM |  |  |
